This assay relates to Plasmodium falciparum. Briefly: GSK_TCMDC: Inhibition of Plasmodium falciparum 3D7 in whole erythrocytes, using parasite LDH activity as an index of growth. It is filed as functional, organism-based. The settings on record: Plasmodium falciparum, 3D7.
As to `CCN(CC)CCCC(C)Nc1cc(C)nc2cc(Cl)ccc12` (configuration not stated), the XC50 worked out at 726 nM.

With `COc1ccc2[nH]c3ccccc3c(=O)c2c1`, the XC50 is 1000 nM.

In the case of `O=C(Nc1ccc2c(c1)CCC2)N[C@H]1CCN(CCCCCNC(=O)C2CC2c2ccc(Cl)c(Cl)c2)C1` (some centres not stated), the XC50 stood at 1080 nM.

Regarding `O=C(c1cnn(-c2ccccc2)c1C(F)(F)F)N1CCN(c2ccnc3cc(Cl)ccc23)CC1`, the XC50 came to 532 nM.

For `CNCCNCc1ccc(-c2ccc(-c3nc4cc(C(F)(F)F)ccc4[nH]3)cc2)cc1`, the XC50 is 314 nM.

`Cc1ccc(NCc2cccc(F)c2)cc1S(=O)(=O)N[C@@H]1CCN(C#N)C1` had an XC50 of 785 nM.

For `Cc1cc(NC(=O)Nc2ccc(N(C)C)cc2)c2cc(Cl)ccc2n1`, the XC50 turned out to be 857 nM.

For the compound `CCC[C@@H]([C@@H](CC1CCC(C)CC1)C(=O)N[C@@H](CCCCNC(=O)c1ccccn1)C(=O)Nc1nccs1)N(O)C=O` (some centres not stated), the XC50 came to 51.3 nM.

Take `c1cncc(CN2CCCN(c3ccc4c(c3)CCN(Cc3ccc(-c5ncc[nH]5)cc3)CC4)CC2)c1`: the XC50 is 747 nM.

`COc1ccc(N2C(N)=NC(N)=NC2(C)C)cc1OC` displayed an XC50 of 311 nM.

As for `S=C(NCCCCCN1CCC(c2c[nH]c3ccccc23)CC1)Nc1cc(Cl)cc(Cl)c1`, the XC50 is 868 nM.

In the case of `O=C1OC(c2ccccc2)(c2ccccc2)CN1C1CCN(Cc2ccc(O)c(Cl)c2)C1` (configuration not stated), the XC50 is 955 nM.

Compound `C=CCOc1ccc(C(=O)Nc2nonc2-c2ccc(OC)c(OC)c2)cc1` had an XC50 of 642 nM.

`CC(CN(C)C)C(=O)Nc1cccc(-c2cccc(-c3nc4ccccc4[nH]3)c2)c1` (configuration not stated) came in with an XC50 of 1060 nM.

For `C=CCn1ccc2c3c(N)nc(N)nc3ccc21`, the XC50 was found to be 70 nM.

On to `COc1ccc(CNCc2ccc(-c3cccc(-c4nc5ccccc5[nH]4)c3)cc2)cc1`, for which the XC50 turned out to be 214 nM.

Compound `CCC(=O)Nc1ccc(C(O)CN2CCC3(C=Cc4ccccc4O3)CC2)cc1` (configuration not stated) yielded an XC50 of 1200 nM.

`COc1ccc(C(=O)NCCCCN2CCC(c3ccc4c(c3OC)CCCC4)CC2)cc1-c1ccc(C(F)(F)F)cc1` came in with an XC50 of 755 nM.

With `Cn1nc(-c2ccccc2F)c2cc(C(=O)Nc3cccnc3)sc21`, the XC50 came to 810 nM.

Regarding `CCn1c(-c2nonc2N)nc2c(-c3ccccc3)ncc(OCCCCNCCc3ncc[nH]3)c21`, the XC50 stood at 852 nM.

Take `Fc1cccc(COc2ccc(Nc3ncnc4sc(C#C[C@H]5CC[C@H](CN6CCOCC6)N5)cc34)cc2Cl)c1`: the XC50 turned out to be 920 nM.

Regarding `CC(C)COc1ccc(Cl)cc1Cc1ccc(-c2nc3ccc(Cl)cc3[nH]2)o1`, the XC50 was determined as 925 nM.

The compound `CN(c1ccccc1C(=O)Nc1cc(Cl)ccc1Oc1ccccc1)S(=O)(=O)c1ccccc1` returned an XC50 of 742 nM.

`COc1c(OC)c(OC)c2ccccc2c1CCNCCCCNCCc1c(OC)c(OC)c(OC)c2ccccc12` had an XC50 of 612 nM.

`Cc1cccc2nc(-c3ccc(-c4ccc(CNCc5cccc(N)c5)cc4)s3)[nH]c12` gave an XC50 of 751 nM.

As for `CC(=O)Nc1cccc(-c2cnc(N)c3cc(-c4ccc5c(c4)OCO5)ccc23)c1`, the XC50 worked out at 491 nM.

The compound `O=C(CCCCCNC(=O)c1ccc(O)c(-c2ccc(Cl)c(Cl)c2)c1)NCc1cccc2ccccc12` displayed an XC50 of 762 nM.

`c1ccc2c(Nc3ccc(OCCOCCOc4ccc(Nc5c6ccccc6nc6ccccc56)cc4)cc3)c3ccccc3nc2c1` showed an XC50 of 284 nM.

The compound `CC(Oc1ccc(NC(=O)c2cccs2)cc1)C(=O)c1ccc(Cl)cc1` (configuration not stated) had an XC50 of 774 nM.

In turn, `O=C1COC(c2ccccc2)(c2ccccc2)CN1CC1CCN(Cc2ccc(O)cc2Cl)C1` (configuration not stated) came in with an XC50 of 999 nM.

In the case of `Cc1nc2nc(N)nc(N)c2c(C)c1Cc1cccc(C(F)(F)F)c1`, the XC50 came out at 1290 nM.

Compound `CC1CCC(NCc2c(O)ccc3ccccc23)CC1` (configuration not stated) had an XC50 of 772 nM.

Take `Nc1cc(-c2ccc3ccccc3c2)nc2ccccc12`: the XC50 came to 699 nM.

`Cc1ccc(Nc2nc3cc(Nc4ccnc(Nc5cccc(CS(C)(=O)=O)c5)n4)ccc3o2)cc1` registered an XC50 of 923 nM.

In the case of `CCOc1cc(NCCCNc2ncc([N+](=O)[O-])cc2C)nc2ccccc12`, the XC50 amounted to 692 nM.

For the compound `FC(F)(F)c1ccc2[nH]c(-c3ccc(-c4ccc(CN5CCN(c6cnccn6)CC5)cc4)s3)nc2c1`, the XC50 is 652 nM.

Take `Cc1onc(-c2ccccc2Cl)c1C(=O)Nc1cc(Cl)c(Cl)cc1Cl`: the XC50 was 1180 nM.

The compound `CCCCCCOc1ccc(C(=O)NCCCC2CCN(CCCCCNC(=O)C=Cc3ccc(Cl)c(Cl)c3)CC2)cc1` yielded an XC50 of 854 nM.

In the case of `COc1cc(C(F)(F)F)cc2[nH]c(CNCCCNc3nc4ccccc4[nH]3)cc12`, the XC50 is 280 nM.

`CCc1cn(C)c2c(N3CCCC3=O)cc(C(=O)N[C@@H](Cc3ccccc3)[C@H](O)CNCc3cccc(OC)c3)cc12` returned an XC50 of 784 nM.

`O=C(C=Cc1ccc(Cl)c(Cl)c1)NCCCCCN1CCC(CCCNC(=O)C2CC2c2ccccc2)CC1` (configuration not stated) registered an XC50 of 765 nM.

For the compound `COc1ccc(CCN(C)CCCOc2ccc(NC(=O)COc3cccc4sc5ccccc5c(=O)c34)cc2)cc1OC`, the XC50 worked out at 459 nM.

In turn, `CN(C)Cc1ccc(-c2ccc(NC(=O)c3ccc4c(=O)n(Cc5ccccc5)cnc4c3)cc2)cc1` yielded an XC50 of 647 nM.

Consider `NS(=O)(=O)c1ccc(CNc2ccc3ncc(-c4ccc(OC(F)(F)F)cc4)n3n2)cc1`, for which the XC50 came out at 578 nM.

As for `O=S(=O)(c1cccc(Br)c1)N1CCCCC(c2ccc(C(F)(F)F)cc2)=N1`, the XC50 came to 554 nM.

For `CN1CCN(c2ccnc3ccc(NC(=O)Nc4ccc(Br)cc4)cc23)CC1`, the XC50 was determined as 92.5 nM.

Consider `COc1ccc2nccc(N(C)CC3(O)CCN(CCc4ccc5c(c4)NC(=O)CS5)CC3)c2n1`, for which the XC50 was 136 nM.

The compound `O=c1nc(NCCCNCc2cc3c(Cl)cc(Cl)cc3[nH]2)[nH]c2ccccc12` came in with an XC50 of 993 nM.

Compound `CC1(C)N=C(N)N=C(N)N1OCc1cc(Cl)c(CON2C(N)=NC(N)=NC2(C)C)cc1Cl` displayed an XC50 of 37.8 nM.

For the compound `CCCC(=O)NC(c1ccc(C)cc1)c1ccc2cccnc2c1O` (configuration not stated), the XC50 stood at 957 nM.

On to `Cc1ccc2nc(-c3ccc(C(=O)NCc4ccc(Cl)c(Cl)c4)cc3)[nH]c2c1C`, for which the XC50 came to 790 nM.

`Cc1ccc(NC(=O)c2ccc(CN3CCCN(CC4CCCCC4)CC3)cc2)cc1C` yielded an XC50 of 1020 nM.

On to `Cc1cc(-c2nc3ccc(N4CCN(C)CC4)cc3[nH]2)nn1Cc1cc(Cl)ccc1OCC(C)C`, for which the XC50 was 878 nM.

`c1cc(CNC2Cc3ccc(-c4cccs4)cc3C2)cc(-n2ccnc2)c1` (configuration not stated) showed an XC50 of 594 nM.

As for `CCOC(=O)c1sc(C(C)Nc2ccccc2)nc1-c1ccccc1` (configuration not stated), the XC50 was 333 nM.

`O=C(N[C@@H](CC1CCCCC1)C(=O)NCCc1ccc(Cl)c(Cl)c1)c1ccc(O)c(-c2ccc(Cl)c(Cl)c2)c1` had an XC50 of 156 nM.

With `NC(=O)c1cc(-c2ccccc2)cc2c(C3CCC(NCc4ccccc4)C3)c[nH]c12` (configuration not stated), the XC50 stood at 910 nM.

Consider `Cc1cc(N2CCN(CC3CCN(C)CC3)CC2)nc(Nc2ccc(Cl)cc2)n1`, for which the XC50 came to 698 nM.

As for `O=C(Nc1ccc(Cn2ncc(N3CCCNCC3)c(Cl)c2=O)cc1)Nc1cc(C(F)(F)F)cc(C(F)(F)F)c1`, the XC50 was 588 nM.

On to `COc1ccc(C2N=C(N)N=C(N)N2c2ccc(Cl)cc2)cc1OC` (configuration not stated), for which the XC50 was 1000 nM.

The compound `CC(=O)Nc1ccc(Cl)c(Cl)c1` registered an XC50 of 41.6 nM.

In turn, `Fc1cccc(CNc2ncc(-c3ccsc3)c(-c3nccs3)n2)c1` yielded an XC50 of 238 nM.

Turning to `O=C(NCCCCCN1CCC(c2c[nH]c3ccccc23)CC1)Nc1cccc(I)c1`, the XC50 was 993 nM.

The compound `O=C(NC1CCN(Cc2ccccc2O)C1)c1cccc(C(F)(F)F)c1` (configuration not stated) came in with an XC50 of 730 nM.

The compound `COc1ccc(CN(C)CCCCc2ccc(NC(=O)COc3cccc4sc5ccccc5c(=O)c34)cc2)cc1OC` displayed an XC50 of 809 nM.

Regarding `COc1cc(F)c2ncc(F)c([C@@H](O)CN3CCC(NCc4cc5c(cn4)OCCO5)CC3)c2c1`, the XC50 is 477 nM.

Regarding `CCCNC(=O)C1Cc2c([nH]c3ccc(Br)cc23)C2(CCN(CCc3ccccc3)CC2)N1` (configuration not stated), the XC50 was 678 nM.

`CCNc1cc(C(=O)N[C@@H](Cc2ccccc2)[C@H](O)CNC(C)CC(C)C)c(F)c(N2CCCCS2(=O)=O)c1` (some centres not stated) yielded an XC50 of 1120 nM.

The compound `FC(F)(F)c1ccc2[nH]c(-c3cccc(-c4cccc(CN5CCN(c6ccncc6)CC5)c4)c3)nc2c1` came in with an XC50 of 158 nM.

Consider `CCOC(=O)CNC(=O)N(CCN(Cc1ccccc1)C(=O)NCC(=O)OCC)Cc1ccccc1`, for which the XC50 is 769 nM.

`Nc1c(Cl)cc(C(O)CNCCCCCOCCCc2ccc(O)c3ncccc23)cc1Cl` (configuration not stated) displayed an XC50 of 992 nM.

The compound `Cc1cc(-c2ccc(Cl)cc2)c2c(N)c(C(=O)Nc3ccc(F)cc3)sc2n1` registered an XC50 of 818 nM.

For the compound `Cc1cc(=O)c(-c2ccc(Oc3cccc(Cl)c3)cc2)c(C)[nH]1`, the XC50 was 602 nM.

For `CCOc1ccccc1CNc1nccc(NCCc2cn(C)c3ccccc23)n1`, the XC50 came out at 1260 nM.

Consider `CCc1nc2nc(C)cc(Nc3ccc4c(c3)OCCO4)n2n1`, for which the XC50 was found to be 1290 nM.

On to `CCCCCCN1CCCN(Cc2ccc(C(=O)Nc3ccc(CC)cc3)cc2)CC1`, for which the XC50 was 756 nM.

As to `COc1ccc2nccc(NCC3(O)CCN(CC(O)c4ccc5c(c4)NC(=O)CS5)CC3)c2n1` (configuration not stated), the XC50 was 834 nM.

`C=CCOC(=O)N1CCC(CNCc2cccc(-c3cccc(-c4nc5cc(F)ccc5[nH]4)c3)c2)C1` (configuration not stated) had an XC50 of 207 nM.

For `CC(C)(C)c1ccc(Cn2nc(C(=O)N3CCN(C(=O)C4CCCO4)CC3)c3ccccc32)cc1` (configuration not stated), the XC50 turned out to be 1320 nM.

`CC(=O)Nc1nc(C(=O)Nc2cccc(-c3ccc(-c4nc5cccc(C)c5[nH]4)s3)c2)cs1` yielded an XC50 of 222 nM.

Turning to `Cc1nc2ccc(NC(=O)c3cc(S(=O)(=O)N(C)C)ccc3Cl)cc2s1`, the XC50 stood at 816 nM.

As to `COc1ccc(Cn2ncc3c4c(N)nc(N)nc4ccc32)cc1OC`, the XC50 turned out to be 3.2 nM.

`Clc1ccccc1OCc1ccccn1` gave an XC50 of 994 nM.

`COc1ccc(-c2ccc(NC(=O)c3ccc(C#N)cc3)cc2)cc1CN1CCCN(C)CC1` displayed an XC50 of 152 nM.

In the case of `Nc1ncc(-c2cccc(OCc3ccccc3)c2)cc1-c1nnc2ccc(Cl)nn12`, the XC50 is 1430 nM.

In turn, `NC(=O)c1sc(-n2cnc3ccccc32)cc1OCc1ccccc1[N+](=O)[O-]` returned an XC50 of 702 nM.

`CC1CCN(CCCNc2ccc(C(=O)Nc3ccc(C(F)(F)F)cc3)cc2[N+](=O)[O-])CC1` showed an XC50 of 340 nM.

These data come from ChEMBL document CHEMBL1157539, “Thousands of chemical starting points for antimalarial lead identification” (Nature, 2010).
